Biological target: human TMEM16A (TMEM16Aabc variant) (Homo sapiens, UniProt Q5XXA6, DEL476-501, form not given)
Assay: Automated whole-cell patch clamp (Qpatch) TMEM16A potentiator assay in FRT cells stably expressing human TMEM16A
Assay type: cell-based
Details: for % Potentiation @ 3.33 μM Avg: 3.33 μM solution of test compound, percentage increase of baseline TMEM16A current; for EC50: calculated EC50, Qpatch TMEM16A current at +70 mV
Method in brief: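 Potentiation was read as the rise in peak +70 mV current over baseline (%), from cumulative 5-min additions of compound. Recordings used whole-cell automated patch of FRT cells stably carrying human TMEM16Aabc, with pipette Ca2+ buffered to give ~20% maximal current. EC50 and efficacy came from concentration-response fits.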

Sequence of human TMEM16A (TMEM16Aabc variant) (Q5XXA6 with tags, fused parts or gaps DEL476-501): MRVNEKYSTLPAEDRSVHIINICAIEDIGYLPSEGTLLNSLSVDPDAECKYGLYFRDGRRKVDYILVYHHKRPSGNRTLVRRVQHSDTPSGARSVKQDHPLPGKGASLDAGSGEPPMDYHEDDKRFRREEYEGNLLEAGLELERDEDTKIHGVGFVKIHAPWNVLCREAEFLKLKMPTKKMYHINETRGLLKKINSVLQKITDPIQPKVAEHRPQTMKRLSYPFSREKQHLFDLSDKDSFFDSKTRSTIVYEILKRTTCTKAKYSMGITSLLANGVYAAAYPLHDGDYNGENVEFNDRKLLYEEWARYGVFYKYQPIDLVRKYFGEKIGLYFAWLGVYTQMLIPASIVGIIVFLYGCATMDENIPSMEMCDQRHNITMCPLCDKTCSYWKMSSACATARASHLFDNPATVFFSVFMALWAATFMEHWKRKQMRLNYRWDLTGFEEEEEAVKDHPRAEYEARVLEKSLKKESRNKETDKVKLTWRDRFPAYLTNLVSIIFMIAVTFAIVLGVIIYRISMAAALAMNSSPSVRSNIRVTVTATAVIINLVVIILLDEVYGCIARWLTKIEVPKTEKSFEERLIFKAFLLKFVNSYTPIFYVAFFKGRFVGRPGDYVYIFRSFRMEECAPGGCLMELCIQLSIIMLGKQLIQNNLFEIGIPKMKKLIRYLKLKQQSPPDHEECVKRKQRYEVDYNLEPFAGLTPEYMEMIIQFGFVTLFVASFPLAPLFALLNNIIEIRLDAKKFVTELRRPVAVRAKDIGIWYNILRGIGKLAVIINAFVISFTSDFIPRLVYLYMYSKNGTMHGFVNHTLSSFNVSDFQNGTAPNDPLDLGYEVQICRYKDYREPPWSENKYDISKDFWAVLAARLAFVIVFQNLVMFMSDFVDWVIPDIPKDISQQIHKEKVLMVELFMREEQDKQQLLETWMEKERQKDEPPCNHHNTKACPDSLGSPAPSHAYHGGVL

Structure (SMILES)	% Potentiation @ 3.33 μM Avg [%]	EC50 [µM]
O=C(Cc1cc(Cl)ccc1O)Nc1ccnc(C(=O)NCCCOc2ccccc2)c1 [Example 35.7, 4-[[2-(5-Chloro-2-hydroxy-phenyl)acetyl]amino]-N-(3-phenoxypropyl)pyridine-2-carboxamide]	97	
CC(C)(C)NC(=O)c1cc(NC(=O)Cc2c(O)c(Br)cc(F)c2Br)ccn1 [Example 3.7a, N-tert-butyl-4-[2-(2,5-dibromo-3-fluoro-6-hydroxyphenyl)acetamido]pyridine-2-carboxamide]	135	0.28
CC(C)(C)NC(=O)c1cc(NC(=O)Cc2cccs2)ccn1 [Example 5, N-tert-Butyl-4-[[2-[2-thienyl]acetyl]amino]pyridine-2-carboxamide]	78	0.8
CC(C)(C)NC(=O)c1cc(NC(=O)C2CCc3ccccc32)ccn1 (centres unmarked) [Example 5.22, N-tert-Butyl-4-(indane-1-carbonylamino)pyridine-2-carboxamide]	94	
CC(C)(C)NC(=O)c1cc(NC(=O)Cc2ncccc2O)ccn1 [Example 19, N-tert-Butyl-4-[[2-(3-hydroxy-2-pyridyl)acetyl]amino]pyridine-2-carboxamide]	57	
CC(C)(C)NC(=O)c1cc(NC(=O)Nc2c[nH]c3ccccc23)ccn1 [Example 64.6, N-tert-butyl-4-(1H-indol-3-ylcarbamoylamino)pyridine-2-carboxamide]	0	
CCC(C)(C)NC(=O)c1cc(NC(=O)Cc2cc(Cl)ccc2O)ccn1 [Example 9.2, 4-[[2-(5-Chloro-2-hydroxy-phenyl)acetyl]amino]-N-(1,1-dimethylpropyl)pyridine-2-carboxamide]	196	0.19
N#CC1(NC(=O)c2cc(NC(=O)Cc3cc(F)ccc3O)ccn2)CCOCC1 [Example 48.1, N-(4-Cyanotetrahydropyran-4-yl)-4-[[2-(5-fluoro-2-hydroxy-phenyl)acetyl]amino] pyridine-2-carboxamide]	185	0.42
CC(C)(C)NC(=O)c1cccc(NC(=O)Cc2c[nH]c3ccc(F)cc23)c1 [Example 4.2, N-tert-Butyl-3-[[2-(5-fluoro-1H-indol-3-yl)acetyl]amino]benzamide]	116	0.66
CC(C)NC(=O)c1cc(NC(=O)Cc2cc(Cl)ccc2O)ccn1 [Example 7.7, 4-[[2-(5-Chloro-2-hydroxy-phenyl)acetyl]amino]-N-isopropyl-pyridine-2-carboxamide]	234	0.13
CCC(C)(C)NC(=O)c1cccc(NC(=O)Cc2ccc(F)cc2O)c1 [Example 2.13, N-(1,1-Dimethylpropyl)-3-[[2-(4-fluoro-2-hydroxy-phenyl)acetyl]amino] benzamide]	126	0.46
CC(CO)(CO)NC(=O)c1cc(NC(=O)Cc2cc(Cl)ccc2O)ccn1 [Example 35.4, 4-[[2-(5-Chloro-2-hydroxy-phenyl)acetyl]amino]-N-[2-hydroxy-1-(hydroxymethyl)-1-methyl-ethyl]pyridine-2-carboxamide]	138	
CC(C)(C)NC(=O)c1nccc(NC(=O)Cc2cc(Cl)ccc2O)c1F [Example 28.1, N-tert-Butyl-4-[[2-(5-chloro-2-hydroxy-phenyl)acetyl]amino]-3-fluoro-pyridine-2-carboxamide]	68	
CC(C)(C)NC(=O)c1ccc(F)c(NC(=O)Cc2cc(Cl)ccc2O)c1 [Example 9, N-tert-Butyl-3-[[2-(5-chloro-2-hydroxy-phenyl)acetyl]amino]-4-fluoro-benzamide]	149	0.23
C#CC1(NC(=O)c2cc(NC(=O)Cc3cc(Cl)ccc3O)ccn2)CCCCC1 [Example 35.24, 4-[[2-(5-Chloro-2-hydroxy-phenyl)acetyl]amino]-N-(1-ethynylcyclohexyl)pyridine-2-carboxamide]	120	0.01
CC(C)(C)NC(=O)c1cc(NC(=O)Cc2cc(Cl)cc(Cl)c2)ccn1 [Example 5.19, N-tert-Butyl-4-[[2-(3,5-dichlorophenyl)acetyl]amino]pyridine-2-carboxamide]	75	1.85
CC(C)(C)NC(=O)c1cc(NC(=O)C2CCc3c(Cl)ccc(O)c32)ccn1 (single isomer, unassigned) [Example 57a, N-tert-butyl-4-[[(1S) or (1R)-4-chloro-7-hydroxy-indane-1-carbonyl]amino]pyridine-2-carboxamide]	285	0.51
CC(C)(C#N)NC(=O)c1cc(NC(=O)CCC2CCCCC2)ccn1 [Example 83.5, N-(1-Cyano-1-methyl-ethyl)-4-(3-cyclohexylpropanoylamino)pyridine-2-carboxamide]	185	

Structure (SMILES)	% Potentiation @ 3.33 μM Avg [%]	EC50 [µM]
CC(C)(C)NC(=O)c1cc(NC(=O)Cc2cccc(O)c2)ccn1 [Example 3.12b, N-tert-Butyl-4-[[2-(3-hydroxyphenyl)acetyl]amino]pyridine-2-carboxamide]	143	0.34
COCc1cccc(CC(=O)Nc2ccnc(C(=O)NC(C)(C)C)c2)c1 [Example 69, N-tert-Butyl-4-[[2-[3-(methoxymethyl)phenyl]acetyl]amino]pyridine-2-carboxamide]	47	
COc1cc(F)ccc1CC(=O)Nc1ccnc(C(=O)NC(C)(C)C)c1 [Example 5.2, N-tert-Butyl-4-[[2-(4-fluoro-2-methoxy-phenyl)acetyl]amino]pyridine-2-carboxamide]	63	
C#CC(C)(C)NC(=O)c1cc(NC(=O)Cc2ccccc2F)ccn1 [Example 60.2, N-(1,1-Dimethylprop-2-ynyl)-4-[[2-(2-fluorophenyl)acetyl]amino]pyridine-2-carboxamide]	169	0.2
C#CC(C)(C)NC(=O)c1cc(NC(=O)CN2CCOc3ccccc32)ccn1 [Example 5.39, 4-[[2-(2,3-Dihydro-1,4-benzoxazin-4-yl)acetyl]amino]-N-(1,1-dimethylprop-2-ynyl)pyridine-2-carboxamide]	147	
CC(C)(C)NC(=O)c1ccc(O)c(NC(=O)Cc2cc(Cl)ccc2O)c1 [Example 14, N-tert-Butyl-3-[[2-(5-chloro-2-hydroxy-phenyl)acetyl]amino]-4-hydroxy-benzamide]	58	
N#CC1(NC(=O)c2cc(NC(=O)Cc3cc(Cl)ccc3O)ccn2)CCOC1 (centres unmarked) [Example 47, 4-[[2-(5-Chloro-2-hydroxy-phenyl)acetyl]amino]-N-(3-cyanotetrahydrofuran-3-yl)pyridine-2-carboxamide]	237	0.18
CC(C)(C)NC(=O)c1cc(NC(=O)Cc2ccccc2F)ccn1 [Example 5.12, N-tert-Butyl-4-[[2-(2-fluorophenyl)acetyl]amino]pyridine-2-carboxamide]	100	0.76
CC(C)(C)NC(=O)c1cc(NC(=O)Cc2cc(CN3CCOCC3)ccc2O)ccn1 [Example 70, N-tert-Butyl-4-[[2-[2-hydroxy-5-(morpholinomethyl)phenyl]acetyl]amino]pyridine-2-carboxamide]	138	
N#CC1(NC(=O)c2cccc(NC(=O)Cc3cc(F)ccc3O)c2)CCOCC1 [Example 41, N-(4-Cyanotetrahydropyran-4-yl)-3-[[2-(5-fluoro-2-hydroxy-phenyl)acetyl]amino] benzamide]	38	
CC(C)(C)OC(=O)N1C[C@@H]2[C@H](C1)[C@H]2NC(=O)c1cc(NC(=O)Cc2cc(Cl)ccc2O)ccn1 [Example 8.3, tert-Butyl (1r,5s,6s)-6-{4-[2-(5-chloro-2-hydroxyphenyl)acetamido]pyridine-2-amido}-3-azabicyclo[3.1.0]hexane-3-carboxylate]	238	0.23
CC(C)(C#N)NC(=O)c1cc(NC(=O)c2ccccc2-n2cccn2)ccn1 [Example 83.15, N-(1-Cyano-1-methyl-ethyl)-4-[(2-pyrazol-1-ylbenzoyl)amino]pyridine-2-carboxamide]	-10	
O=C(Cc1cc(Cl)ccc1O)Nc1ccnc(C(=O)NC2(CO)CCC2)c1 [Example 35.25, 4-[[2-(5-Chloro-2-hydroxy-phenyl)acetyl]amino]-N-[1-(hydroxymethyl)cyclobutyl]pyridine-2-carboxamide]	126	0.1
O=C(Cc1cc(Cl)ccc1O)Nc1ccnc(C(=O)NC2(CO)CCOCC2)c1 [Example 53, 4-[[2-(5-Chloro-2-hydroxy-phenyl)acetyl]amino]-N-[4-(hydroxymethyl)tetrahydropyran-4-yl]pyridine-2-carboxamide]	184	0.39
COc1ccc(Cl)cc1CC(=O)Nc1cc(C(=O)NC(C)(C)C)ncn1 [Example 82, N-tert-Butyl-6-[[2-(5-chloro-2-methoxy-phenyl)acetyl]amino]pyrimidine-4-carboxamide]	88	0.72
CC(C)(C)NC(=O)c1cc(NC(=O)C2CCCCc3ccccc32)ccn1 (centres unmarked) [Example 5.26, N-tert-Butyl-4-(6,7,8,9-tetrahydro-5H-benzo[7]annulene-5-carbonylamino) pyridine-2-carboxamide]	110	1.2
O=C(Cc1cc(Cl)ccc1O)Nc1ccnc(C(=O)N[C@H]2CCCC[C@@H]2O)c1 (single isomer, unassigned) [Example 31.3a, 4-[[2-(5-Chloro-2-hydroxy-phenyl)acetyl]amino]-N-[(1S,2S)-2-hydroxycyclohexyl]pyridine-2-carboxamide or 4-[[2-(5-Chloro-2-hydroxy-phenyl)acetyl]amino]-N-[(1R,2R)-2-hydroxycyclohexyl]pyridine-2-carboxamide]	238	0.55

Source: US20200361871A1 (Enterprise Therapeutics Ltd., priority 2018, published 2020)
